Laboratory results as given in ChEMBL document CHEMBL1201862, “PubChem BioAssay data set” (2004).
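Compound exposure: 48 hours, 5 concentrations, 96-well plates. Here, GI50 denotes the concentration required for 50% inhibition of growth.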 Active and inactive are the calls of the source. Cut-off read from the data, not from the text of the source: active = GI50 up to about 1.1 µM and inactive = higher.

Columns and labels:
Assay in all cases: NCI tumour cell line growth inhibition, 48 h
[1] = tested on: A549
[2] = tested on: NCI-H460
[3] = tested on: HCT-116
[4] = tested on: SK-MEL-5
[5] = tested on: MOLT-4
[6] = tested on: KM-20L2
[7] = tested on: OVCAR-5
[8] = tested on: COLO 205
[9] = tested on: UACC-62
[10] = tested on: DLD-1
[11] = tested on: SK-OV-3
[12] = tested on: M14
[13] = tested on: HCT-15
[14] = tested on: NCI-H23
[15] = tested on: UO-31
[16] = tested on: 786-0
[17] = tested on: SNB-75
[18] = tested on: NCI-H226
[19] = tested on: OVCAR-3
[20] = tested on: SF-268
[21] = tested on: Malme-3M
[22] = tested on: RXF 393
[23] = tested on: K562
[24] = tested on: HOP-92
[25] = tested on: SNB-19
[26] = tested on: M19-MEL
[27] = tested on: HT-29
[28] = tested on: TK-10
[29] = tested on: SF-539
[30] = tested on: IGROV-1
[31] = tested on: RPMI-8226
[32] = tested on: SNB-78
[33] = tested on: EKVX
[34] = tested on: DMS-114
[35] = tested on: SN12C
[36] = tested on: ACHN
[37] = tested on: OVCAR-8
[38] = tested on: HOP-62
[39] = tested on: SK-MEL-28
[40] = tested on: UACC-257
[41] = tested on: SW-620
[42] = tested on: LXFL 529
[43] = tested on: A498
[44] = tested on: LOX IMVI
[45] = tested on: KM12
[46] = tested on: HCC 2998
[47] = tested on: HL-60
[48] = tested on: U-251
[49] = tested on: SF-295
[50] = tested on: SK-MEL-2
[51] = tested on: CCRF-CEM
[52] = tested on: SR
[53] = tested on: CAKI-1
[54] = tested on: DMS-273
[55] = tested on: NCI-H522
[56] = tested on: OVCAR-4
[57] = tested on: HOP-18

Cc1nc(-n2nc(-c3ccccc3)cc2-c2ccccc2)sc1C(/C=C/c1ccc([N+](=O)[O-])cc1)=N/NC(=O)c1ccncc1
GI50 [1]: 30.3 µM (inactive) | GI50 [2]: 40 µM (inactive) | GI50 [3]: 9.12 µM (inactive) | GI50 [4]: 18.1 µM (inactive) | GI50 [5]: 6.89 µM (inactive) | GI50 [6]: 19.4 µM (inactive) | GI50 [7]: 53.1 µM (inactive) | GI50 [8]: 21.6 µM (inactive) | GI50 [9]: 19.4 µM (inactive) | GI50 [10]: 11.6 µM (inactive) | GI50 [11]: 44.8 µM (inactive) | GI50 [12]: 20.2 µM (inactive) | GI50 [13]: 14.7 µM | GI50 [14]: 14.8 µM (inactive) | GI50 [15]: 11.7 µM (inactive) | GI50 [16]: 13.5 µM (inactive) | GI50 [17]: 22.9 µM (inactive) | GI50 [18]: 17.9 µM (inactive) | GI50 [19]: 12.6 µM (inactive) | GI50 [20]: 20 µM (inactive) | GI50 [21]: 21.9 µM (inactive) | GI50 [22]: 22.4 µM (inactive) | GI50 [23]: 13.9 µM (inactive) | GI50 [24]: 11.5 µM (inactive) | GI50 [25]: 14 µM (inactive) | GI50 [26]: 25.4 µM (inactive) | GI50 [27]: 14.4 µM (inactive) | GI50 [28]: 32.6 µM (inactive) | GI50 [29]: 13.1 µM (inactive) | GI50 [30]: 21.1 µM (inactive) | GI50 [31]: 7.16 µM (inactive) | GI50 [32]: 17.3 µM (inactive) | GI50 [33]: 36.8 µM (inactive) | GI50 [34]: 13.9 µM (inactive) | GI50 [35]: 24.2 µM (inactive) | GI50 [36]: 23.6 µM (inactive) | GI50 [37]: 28.9 µM (inactive) | GI50 [38]: 12.8 µM (inactive) | GI50 [39]: 31.1 µM (inactive) | GI50 [40]: 41.7 µM (inactive) | GI50 [41]: 26.7 µM (inactive) | GI50 [42]: 12.7 µM (inactive) | GI50 [43]: 49.3 µM (inactive) | GI50 [44]: 14.2 µM (inactive) | GI50 [45]: 4.06 µM (inactive) | GI50 [46]: 5.82 µM (inactive) | GI50 [47]: 11 µM (inactive) | GI50 [48]: 27.7 µM (inactive) | GI50 [49]: 29 µM (inactive) | GI50 [50]: 17.7 µM (inactive) | GI50 [51]: 7.6 µM (inactive)

N#CC(c1ccc(Cl)cc1)c1c(=O)[nH]c2ccc(N)cc2[n+]1[O-] (stereo not given)
GI50 [1]: > 100 µM (inactive) | GI50 [3]: > 100 µM (inactive) | GI50 [4]: > 100 µM (inactive) | GI50 [52]: > 100 µM (inactive) | GI50 [5]: > 100 µM (inactive) | GI50 [6]: > 100 µM (inactive) | GI50 [9]: > 100 µM (inactive) | GI50 [10]: > 100 µM (inactive) | GI50 [11]: > 100 µM (inactive) | GI50 [12]: > 100 µM (inactive) | GI50 [53]: > 100 µM (inactive) | GI50 [16]: > 100 µM (inactive) | GI50 [17]: > 100 µM (inactive) | GI50 [18]: > 100 µM (inactive) | GI50 [19]: > 100 µM (inactive) | GI50 [20]: > 100 µM (inactive) | GI50 [23]: > 100 µM (inactive) | GI50 [24]: > 100 µM (inactive) | GI50 [26]: > 100 µM (inactive) | GI50 [54]: > 100 µM (inactive) | GI50 [27]: > 100 µM (inactive) | GI50 [28]: > 100 µM (inactive) | GI50 [29]: > 100 µM (inactive) | GI50 [30]: > 100 µM (inactive) | GI50 [31]: > 100 µM (inactive) | GI50 [33]: > 100 µM (inactive) | GI50 [55]: > 100 µM (inactive) | GI50 [36]: > 100 µM (inactive) | GI50 [39]: > 100 µM (inactive) | GI50 [40]: > 100 µM (inactive) | GI50 [41]: > 100 µM (inactive) | GI50 [42]: > 100 µM (inactive) | GI50 [44]: > 100 µM (inactive) | GI50 [45]: > 100 µM (inactive) | GI50 [47]: > 100 µM (inactive) | GI50 [49]: > 100 µM (inactive) | GI50 [51]: > 100 µM (inactive)

Cc1ccc([S+](c2ccccc2)c2cc(C)ccc2C)cc1 (stereo not given)
GI50 [1]: 7.03 µM (inactive) | GI50 [2]: 6.38 µM (inactive) | GI50 [3]: 2.94 µM (inactive) | GI50 [4]: 0.53 µM (active) | GI50 [52]: 24.6 µM (inactive) | GI50 [5]: 3.65 µM (inactive) | GI50 [8]: 2.99 µM (inactive) | GI50 [9]: 4.52 µM (inactive) | GI50 [10]: 1.81 µM (inactive) | GI50 [12]: 22.2 µM (inactive) | GI50 [53]: 26.7 µM (inactive) | GI50 [15]: > 100 µM (inactive) | GI50 [16]: 35.2 µM (inactive) | GI50 [17]: < 0.01 µM (active) | GI50 [56]: 29.4 µM (inactive) | GI50 [19]: 2.26 µM (inactive) | GI50 [20]: 6.64 µM (inactive) | GI50 [21]: 0.271 µM (active) | GI50 [23]: 0.374 µM (active) | GI50 [25]: 4.38 µM (inactive) | GI50 [26]: 1.62 µM (inactive) | GI50 [54]: 0.859 µM (active) | GI50 [29]: 13.7 µM (inactive) | GI50 [30]: 0.117 µM (active) | GI50 [31]: 3.66 µM (inactive) | GI50 [33]: 1.17 µM (inactive) | GI50 [34]: 1.08 µM (active) | GI50 [35]: 5.94 µM (inactive) | GI50 [55]: 3.13 µM (inactive) | GI50 [57]: 1.38 µM (inactive) | GI50 [36]: 11.2 µM (inactive) | GI50 [37]: 4.59 µM (inactive) | GI50 [38]: 15.1 µM (inactive) | GI50 [40]: 1.48 µM (inactive) | GI50 [41]: 5.64 µM (inactive) | GI50 [43]: 0.0435 µM (active) | GI50 [44]: 2.35 µM (inactive) | GI50 [45]: 2.85 µM (inactive) | GI50 [46]: 1.7 µM (inactive) | GI50 [47]: 1.97 µM (inactive) | GI50 [49]: 12.4 µM (inactive) | GI50 [51]: 0.438 µM (active)
